From US20060079453A1, “Hla binding peptides and their uses” (priority 2002, published 2006)
No end group written: not given here.

Key:
Assay in all cases: biochemical
Format in all cases: binding
HLA-DR DRB1*0301 (DR3) = HLA-DR DRB1*0301 (DR3) (Homo sapiens, UniProt P01903+P01911, A100K/A102G/A103R/A169T/F55Y/I96L/K41T/L162R/M171V/P40S/Q125H/Q178H/Q39Y/R42S/S66N/T106N/T262R/W38E/Y61H)
HLA-DR DRB1*1501 (DR15) = HLA-DR DRB1*1501 (DR15) (Homo sapiens, UniProt P01903+P01911); details: DRBI *1501
HLA-DR DRB1*0901 (DR9) = HLA-DR DRB1*0901 (DR9) (Homo sapiens, UniProt P01903+P01911, A100R/A103E/D57H/D86V/F55Y/F60I/F76Y/I96F/K127E/L162R/M171V/P40D/Q125H/Q99R/R33Q/R42F/S133A/S66N/T210M/V115G/W38K/Y107V/Y59G/Y89S); details: DRB1 *0901
HLA-DR DRB1*0101 (DR1) = HLA-DR DRB1*0101 (DR1) (Homo sapiens, UniProt P01903+P01911, A100R/D57E/F55L/F60I/F76Y/I96L/L162R/M171V/P40L/Q125E/R42F/V115G/Y59C); details: DRB1 *0101
HLA-DR DRB4*0101 (DR53) = HLA-DR DRB4*0101 (DR53) (Homo sapiens, UniProt P01903+P13762, G164S); details: DRB4 *0101
HLA-DR DRB5*0101 (DR51) = HLA-DR DRB5*0101 (DR51) (Homo sapiens, UniProt P01903+Q30154); details: DRB5 *0101
HLA-DR DRB1*0401 (DR4) = HLA-DR DRB1*0401 (DR4) (Homo sapiens, UniProt P01903+P01911, A100K/A169T/F76Y/I96L/K127E/L162R/M171V/N62H/P40V/Q125Y/R42H/S133A/S149N/S66Y/V115G/V209L/W38E); details: DRB1 *0401
HLA-DR DRB3*0101 (DR52) = HLA-DR DRB3*0101 (DR52) (Homo sapiens, UniProt P01903+P79483)
HLA-DR DRB1*0802 (DR8) = HLA-DR DRB1*0802 (DR8) (Homo sapiens, UniProt P01903+P01911, A100R/A103L/A169T/F76Y/H45Y/I96F/K41T/L162R/M171V/P40S/Q125H/Q178H/Q39Y/Q99D/R218S/R42G/S66Y/V115G/W38E)
HLA-DR DRB1*0701 (DR7) = HLA-DR DRB1*0701 (DR7) (Homo sapiens, UniProt P01903+P01911, A100R/A102G/A103Q/D57E/D86V/E43K/F76Y/K127E/L162R/M171V/P40G/Q125H/Q99D/R33Q/R42Y/R54Q/S133A/S66F/T210M/V115G/Y107V/Y59L/Y89S); details: DRB1 *0701
HLA-DR DRB1*1302 (DR13) = HLA-DR DRB1*1302 (DR13) (Homo sapiens, UniProt P01903+P01911, A100E/A169T/K41T/L162R/M171V/P40S/Q125H/Q178H/Q39Y/Q99D/R42S/S66N/T262R/V115G/W38E/Y61H); details: DRBI *1302
Chain of HLA-DR DRB1*1302 (DR13) (P01903 26-254 limits assumed, other chains not shown): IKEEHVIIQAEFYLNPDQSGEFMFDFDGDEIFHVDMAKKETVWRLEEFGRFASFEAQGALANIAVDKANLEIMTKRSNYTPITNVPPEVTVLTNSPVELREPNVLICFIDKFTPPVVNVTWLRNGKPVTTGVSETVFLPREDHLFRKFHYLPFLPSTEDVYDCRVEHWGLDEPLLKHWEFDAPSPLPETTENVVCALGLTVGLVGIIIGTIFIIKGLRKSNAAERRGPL

Chain of HLA-DR DRB1*0301 (DR3) (P01903 26-254 limits assumed, other chains not shown): as above

Row | Compound | IC50 (HLA-DR DRB1*0301 (DR3)) | IC50 (HLA-DR DRB1*1501 (DR15)) | IC50 (HLA-DR DRB1*0901 (DR9)) | IC50 (HLA-DR DRB1*0101 (DR1)) | IC50 (HLA-DR DRB4*0101 (DR53)) | IC50 (HLA-DR DRB5*0101 (DR51)) | IC50 (HLA-DR DRB1*0401 (DR4)) | IC50 (HLA-DR DRB3*0101 (DR52)) | IC50 (HLA-DR DRB1*0802 (DR8)) | IC50 (HLA-DR DRB1*0701 (DR7)) | IC50 (HLA-DR DRB1*1302 (DR13))
1 | EDFFKLERDMKINCS | 468 nM | > 3490 nM | > 52300 nM | 2710 nM | 7890 nM | 3490 nM | 226 nM | 4040 nM | 1440 nM | 8550 nM | 3190 nM
2 | CC(C)C[C@H](NC(=O)[C@H](CCC(=O)O)NC(=O)[C@H](CCCCN)NC(=O)[C@H](C)NC(=O)[C@H](CC(C)C)NC(=O)[C@@H](NC(=O)[C@H](CO)NC(=O)[C@H](CCCNC(=N)N)NC(=O)[C@H](CC(=O)O)NC(=O)[C@H](CC(C)C)NC(=O)[C@H](Cc1c[nH]c2ccccc12)NC(=O)[C@H](Cc1ccccc1)NC(=O)[C@H](Cc1ccccc1)NC(=O)[C@H](CC(C)C)NC(=O)[C@@H](N)CC(C)C)C(C)C)C(=O)O | 6.3 nM | 34 nM | 518 nM | 2.9 nM | 7.5 nM |  | 2.6 nM | 86 nM | 163 nM |  | 24 nM
3 | CC[C@H](C)[C@H](NC(=O)[C@H](CO)NC(=O)[C@@H](NC(=O)CN)C(C)C)C(=O)N[C@@H](Cc1c[nH]c2ccccc12)C(=O)N[C@@H](CC(N)=O)C(=O)N1CCC[C@H]1C(=O)N[C@H](C(=O)N[C@@H](CC(C)C)C(=O)N[C@@H](CC(C)C)C(=O)N[C@@H](Cc1c[nH]c2ccccc12)C(=O)N[C@@H](CCC(N)=O)C(=O)N1CCC[C@H]1C(=O)N[C@H](C(=O)N1CCC[C@H]1C(=O)O)[C@@H](C)CC)[C@@H](C)CC | 56300 nM | 5 nM | 3980 nM | 44 nM | 492 nM | 523 nM |  | 4430 nM | 11000 nM | 4990 nM | 
4 | CC(C)C[C@H](NC(=O)[C@H](Cc1ccccc1)NC(=O)CNC(=O)[C@H](CC(C)C)NC(=O)[C@H](CO)NC(=O)[C@H](CC(C)C)NC(=O)[C@H](CO)NC(=O)[C@H](C)NC(=O)[C@H](C)NC(=O)[C@H](CCCNC(=N)N)NC(=O)[C@H](C)NC(=O)[C@H](CC(C)C)NC(=O)[C@H](CC(C)C)NC(=O)[C@H](CC(C)C)NC(=O)[C@@H]1CCCN1)C(=O)O | > 81800 nM |  | 58 nM | 10 nM | 52 nM | 151 nM |  | > 9740 nM | 37 nM |  | 12 nM
5 | CC(C)C[C@H](NC(=O)[C@@H](NC(=O)[C@H](CCC(=O)O)NC(=O)[C@H](C)NC(=O)[C@H](C)NC(=O)[C@H](C)NC(=O)[C@H](CCC(N)=O)NC(=O)[C@@H](NC(=O)[C@@H](NC(=O)[C@H](Cc1ccccc1)NC(=O)[C@H](C)NC(=O)[C@H](C)NC(=O)[C@@H](N)C(C)C)[C@@H](C)O)C(C)C)[C@@H](C)O)C(=O)N[C@@H](CO)C(=O)N[C@@H](CCC(=O)O)C(=O)O | > 75000 nM | 18200 nM | 127 nM | 14 nM | 464 nM | 378 nM | 58 nM | 2120 nM | 1420 nM | 793 nM | 
6 | KLKLYTGEATRTGDR | 118000 nM | 18 nM | > 78900 nM | 178 nM | 14800 nM |  | 15 nM | 5300 nM | 2010 nM | 8230 nM | 841 nM
